Test results as given in ChEMBL document CHEMBL3400131, “Discovery of potent and selective urea-based ROCK inhibitors: Exploring the inhibitor's potency and ROCK2/PKA selectivity by 3D-QSAR, molecular docking and molecular dynamics simulations” (Bioorg Med Chem, 2015).

tested on: not listed separately; assay: Inhibition of recombinant human full length PKA using kemptide substrate after 80 mins by luminescence mode

Structure (SMILES) | IC50 [µM]
CCN(Cc1cccc(OC)c1)C(=O)Nc1ccc(-c2cn[nH]c2)cc1O[C@H]1CCN(C)C1 | 6.7
COc1cccc(CN(C(=O)Nc2ccc(-c3cn[nH]c3)cc2)C(C)C)c1 | 18.4
COc1cccc(CN(CCO)C(=O)Nc2ccc(-c3cn[nH]c3)cc2)c1 | 2.99
COCCN(Cc1cccc(OC)c1)C(=O)Nc1ccc(-c2cn[nH]c2)cc1 | 10.5
COc1cccc(CN(CCN2CCOCC2)C(=O)Nc2ccc(-c3cn[nH]c3)cc2)c1 | 3.82
COc1cccc(CN(CCCN2CCCCC2)C(=O)Nc2ccc(-c3cn[nH]c3)cc2)c1 | 0.822
O=C(Nc1ccc(-c2cn[nH]c2)cc1F)N(CCO)Cc1ccccc1 | 1.02
COc1cccc(C(CCO)NC(=O)Nc2ccc(-c3cn[nH]c3)cc2)c1 (stereo unspecified) | 4.87
O=C(NCCc1ccccc1)Nc1ccc(-c2cn[nH]c2)cc1 | 3.1
O=C(NCCCc1ccccc1)Nc1ccc(-c2cn[nH]c2)cc1 | > 20
O=C(Nc1ccc(-c2cn[nH]c2)cc1)N1CCc2ccccc2C1 | 8
O=C(NCC1CCCCC1)Nc1ccc(-c2cn[nH]c2)cc1 | > 20
COc1cccc(CNC(=O)Nc2ccc(-c3cn[nH]c3)cc2)c1OC | > 20
COc1ccc(CNC(=O)Nc2ccc(-c3cn[nH]c3)cc2)c(OC)c1 | 11.2
COc1ccc(OC)c(CNC(=O)Nc2ccc(-c3cn[nH]c3)cc2)c1 | > 20
COc1cccc(OC)c1CNC(=O)Nc1ccc(-c2cn[nH]c2)cc1 | 13.5
COc1ccc(CNC(=O)Nc2ccc(-c3cn[nH]c3)cc2)cc1OC | > 20
COc1cc(CNC(=O)Nc2ccc(-c3cn[nH]c3)cc2)cc(OC)c1 | > 20
COc1cccc(CN(C)C(=O)Nc2ccc(-c3cn[nH]c3)cc2)c1 | 1.81
CCN(Cc1cccc(OC)c1)C(=O)Nc1ccc(-c2cn[nH]c2)cc1 | 4.67
COc1cccc(CN(C(=O)Nc2ccc(-c3cn[nH]c3)cc2)C2CC2)c1 | 1.71
Cc1cccc(CNC(=O)Nc2ccc(-c3cn[nH]c3)cc2)c1 | 2.63

Structure (SMILES) | IC50 [µM]
COc1cccc(CNC(=O)Nc2ccc(-c3c[nH]nc3C)cc2)c1 | 0.816
COc1cccc(CNC(=O)Nc2ccc(-c3ccncc3)cc2)c1 | 2.3
COc1cccc(CNC(=O)Nc2ccc(-c3ccnc(N)n3)cc2)c1 | 1.03
COc1cccc(CNC(=O)Nc2ccc(-c3ccnc(N)c3)cc2)c1 | 5.14
COc1cccc(CNC(=O)Nc2ccc(-c3cn[nH]c3)cc2F)c1 | 1.82
COc1cccc(CNC(=O)Nc2ccc(-c3cn[nH]c3)cc2OCCN(C)C)c1 | 3.9
COc1cccc(CNC(=O)Nc2ccc(-c3cn[nH]c3)cc2OCCN2CCCC2)c1 | 2.73
COc1cccc(CNC(=O)Nc2ccc(-c3cn[nH]c3)cc2N(C)CCN(C)C)c1 | 3.57
COc1cccc(CN(C)C(=O)Nc2ccc(-c3cn[nH]c3)cc2OCCN(C)C)c1 | 5.23
COc1cccc(CN(C)C(=O)Nc2ccc(-c3cn[nH]c3)cc2OCCN2CCCC2)c1 | > 20
COc1cccc(CN(C)C(=O)Nc2ccc(-c3cn[nH]c3)cc2N(C)CCN(C)C)c1 | 4.62
CCN(Cc1cccc(OC)c1)C(=O)Nc1ccc(-c2cn[nH]c2)cc1OCCN(C)C | > 20
CCN(Cc1cccc(OC)c1)C(=O)Nc1ccc(-c2cn[nH]c2)cc1OCCN1CCCC1 | 18.1
CCN(Cc1cccc(OC)c1)C(=O)Nc1ccc(-c2cn[nH]c2)cc1N(C)CCN(C)C | 5
COc1cccc(CNC(=O)Nc2ccc(-c3cn[nH]c3)cc2)c1 | 0.882
CNC(=O)N(C)c1ccc(-c2cn[nH]c2)cc1 | > 20
CNC(=O)N(CCO)c1ccc(-c2cn[nH]c2)cc1 | > 20
CNC(=O)N(CCN(C)C)c1ccc(-c2cn[nH]c2)cc1 | 4.2
CNC(=O)N(CCCN(C)C)c1ccc(-c2cn[nH]c2)cc1 | 12
CN(C)CCN(C)c1cc(-c2cn[nH]c2)ccc1NC(=O)NCc1ccccc1 | 0.894
CC(C)N(Cc1ccccc1)C(=O)Nc1ccc(-c2cn[nH]c2)cc1 | 3.38

Further lines, results first:

IC50 [µM] | Structure (SMILES)
0.744 | COc1cccc(CNC(=O)Nc2ccc(-c3ncnc4[nH]ccc34)cc2)c1
0.724 | COc1cccc(CN(CCCN2CCOCC2)C(=O)Nc2ccc(-c3cn[nH]c3)cc2)c1
0.654 | COc1ccccc1CNC(=O)Nc1ccc(-c2cn[nH]c2)cc1
0.615 | O=C(Nc1ccc(-c2cn[nH]c2)cc1OCCO)N(CCO)Cc1ccccc1
0.61 | O=C(Nc1ccc(-c2cn[nH]c2)cc1)N(CCO)Cc1ccccc1
0.59 | O=C(NCc1ccccc1)Nc1ccc(-c2cn[nH]c2)cc1
0.58 | O=C(Nc1ccc(-c2cn[nH]c2)cc1)NC(CCO)c1cccc(F)c1 (stereo unspecified)
0.541 | COc1cccc(CN(CCN2CCCC2)C(=O)Nc2ccc(-c3cn[nH]c3)cc2)c1
0.518 | COc1ccc(CNC(=O)Nc2ccc(-c3cn[nH]c3)cc2)cc1F
0.468 | CN(C)CCSc1cc(-c2cn[nH]c2)ccc1NC(=O)NCc1ccccc1
0.456 | COc1cccc(CN(CCN(C)C)C(=O)Nc2ccc(-c3cn[nH]c3)cc2)c1
0.454 | O=C(NCc1cccc(Cl)c1)Nc1ccc(-c2cn[nH]c2)cc1
0.438 | O=C(Nc1ccc(-c2cn[nH]c2)cc1)NC(CCO)c1ccccc1 (stereo unspecified)
0.405 | Nc1cccc(CNC(=O)Nc2ccc(-c3cn[nH]c3)cc2)c1
0.389 | O=C(Nc1ccc(-c2cn[nH]c2)cc1)NC(CO)c1ccccc1 (stereo unspecified)
0.338 | COc1cccc(CN(CCN2CCCCC2)C(=O)Nc2ccc(-c3cn[nH]c3)cc2)c1
0.322 | O=C(NCc1cccc(F)c1)Nc1ccc(-c2cn[nH]c2)cc1
0.313 | COc1cccc(CNC(=O)Nc2ccc(-c3cn[nH]c3)cc2Cl)c1
0.238 | CN(C)CCC(NC(=O)Nc1ccc(-c2cn[nH]c2)cc1)c1ccccc1 (stereo unspecified)
0.228 | COc1cccc(CN(CCCN2CCCC2)C(=O)Nc2ccc(-c3cn[nH]c3)cc2)c1
0.163 | COc1cccc(CNC(=O)Nc2ccc(-c3cn[nH]c3)cc2OC)c1
0.072 | COc1cccc(CN(CCN)C(=O)Nc2ccc(-c3cn[nH]c3)cc2)c1
0.038 | COc1cccc(CNC(=O)Nc2ccc(-c3cn[nH]c3)cc2N(C)C)c1

biological target: Rho-associated protein kinase 2 (Homo sapiens, UniProt O75116); assay: Inhibition of ROCK2 (unknown origin) using STK2 substrate after 4 hrs by HTRF mode
Sequence (O75116 whole entry): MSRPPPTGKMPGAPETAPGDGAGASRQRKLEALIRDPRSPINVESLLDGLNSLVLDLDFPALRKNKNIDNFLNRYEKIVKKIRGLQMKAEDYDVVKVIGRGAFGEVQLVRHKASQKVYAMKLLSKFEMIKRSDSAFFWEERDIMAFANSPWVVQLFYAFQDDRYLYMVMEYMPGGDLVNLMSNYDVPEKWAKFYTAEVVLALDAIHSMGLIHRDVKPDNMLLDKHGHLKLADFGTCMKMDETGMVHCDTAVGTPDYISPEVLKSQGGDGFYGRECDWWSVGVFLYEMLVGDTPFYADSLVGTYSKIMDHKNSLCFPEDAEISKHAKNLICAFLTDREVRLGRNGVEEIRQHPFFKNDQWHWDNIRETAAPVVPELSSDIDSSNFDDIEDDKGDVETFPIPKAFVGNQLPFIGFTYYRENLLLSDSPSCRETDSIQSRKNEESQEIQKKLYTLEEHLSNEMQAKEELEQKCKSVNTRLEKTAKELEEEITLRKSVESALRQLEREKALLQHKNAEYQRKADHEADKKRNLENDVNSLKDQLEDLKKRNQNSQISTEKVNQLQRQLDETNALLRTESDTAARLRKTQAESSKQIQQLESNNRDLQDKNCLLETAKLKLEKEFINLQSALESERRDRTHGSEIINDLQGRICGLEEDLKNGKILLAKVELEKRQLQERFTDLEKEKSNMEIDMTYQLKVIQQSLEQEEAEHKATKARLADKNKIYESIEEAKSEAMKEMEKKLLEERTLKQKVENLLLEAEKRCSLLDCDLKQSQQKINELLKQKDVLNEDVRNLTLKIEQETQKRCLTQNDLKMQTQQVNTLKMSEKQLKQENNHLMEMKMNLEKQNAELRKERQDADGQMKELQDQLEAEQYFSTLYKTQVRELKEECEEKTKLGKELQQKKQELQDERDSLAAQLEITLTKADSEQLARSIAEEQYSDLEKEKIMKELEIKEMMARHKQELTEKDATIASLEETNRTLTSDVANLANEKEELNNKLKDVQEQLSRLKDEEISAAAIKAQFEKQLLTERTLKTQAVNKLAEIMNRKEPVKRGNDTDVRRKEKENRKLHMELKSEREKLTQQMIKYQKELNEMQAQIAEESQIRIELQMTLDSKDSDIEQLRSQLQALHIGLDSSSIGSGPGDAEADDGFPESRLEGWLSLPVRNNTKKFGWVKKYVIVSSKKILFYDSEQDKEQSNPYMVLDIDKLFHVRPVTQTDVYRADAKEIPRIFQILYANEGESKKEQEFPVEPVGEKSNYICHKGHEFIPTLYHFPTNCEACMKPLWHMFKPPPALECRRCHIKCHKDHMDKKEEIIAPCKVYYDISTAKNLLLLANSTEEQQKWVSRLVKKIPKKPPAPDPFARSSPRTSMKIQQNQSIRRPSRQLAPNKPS

Structure (SMILES) | IC50 [µM]
CNC(=O)N(C)c1ccc(-c2cn[nH]c2)cc1 | 0.087
CNC(=O)N(CCO)c1ccc(-c2cn[nH]c2)cc1 | 0.611
CNC(=O)N(CCN(C)C)c1ccc(-c2cn[nH]c2)cc1 | 2.98
CNC(=O)N(CCCN(C)C)c1ccc(-c2cn[nH]c2)cc1 | 3.32
CN(C)CCOc1cc(-c2cn[nH]c2)ccc1NC(=O)N(CCN(C)C)Cc1ccccc1 | 0.17
CN(C)CCN(C)c1cc(-c2cn[nH]c2)ccc1NC(=O)NCc1ccccc1 | 0.0085
CC(C)N(Cc1ccccc1)C(=O)Nc1ccc(-c2cn[nH]c2)cc1 | 0.008

Second part, the compound after the results:

IC50 [µM] | Structure (SMILES)
0.188 | COc1cccc(CNC(=O)Nc2ccc(-c3ncnc4[nH]ccc34)cc2)c1
< 0.001 | O=C(Nc1ccc(-c2cn[nH]c2)cc1OCCO)N(CCO)Cc1ccccc1
0.0056 | CN(C)CCSc1cc(-c2cn[nH]c2)ccc1NC(=O)NCc1ccccc1
